Experiments:
[1] = system: dexamethasone-induced thymic and splenic atrophy; assay: Dexamethasone-induced thymic and splenic atrophy in mice; type: in vivo, CD-1 mice; design: Thymus wt / Spleen wt: unit not given here; conditions: for Approximate Potency Compared to Fluasterone in Protecting Against DEX-induced Thymic and Splenic Involution: fluasterone = 1
Procedure: Administration of dehydroepiandrosterone (DHEA, 60 mg/kg, s.c.) for three days partially reverse thymic and splenic atrophy induced by a single injection of dexamethasone (1.6 mg/mouse). In this experiment, the efficacy of either 10 mg/kg or 20 mg/kg DHEA administered s.c. versus the effect of 10 mg/kg or 20 mg/kg fluasterone was investigated.
5% Cremophor (polyethoxylated castor oil; Sigma Chemicals)-95% saline vehicle was prepared using 95 mL of sterile 0.9% NaCl (filtered through sterile 0.22 micron filter) and 5 mL of Cremophor. The Cremophor was dissolved by swirling for approximately 5 minutes.
Dexamethasone solutions were prepared by dissolving dexamethasone (Sigma Chemicals) in absolute ethanol. For example, 71.9 mg of dexamethasone was dissolved in 2.9 mL of absolute ethanol. In order to prevent precipitation, the solution was kept on a hotplate between injections.
For the 10 mg/kg suspension, 25.7 mg of DHEA was weighed out, transferred to a glass scintillation vial, and 10.3 mL of the Cremophor-saline vehicle was added. The DHEA suspension was homogenized using a Tissumizer at 80% power for 30 sec. The Tissumizer was rinsed with 70% ethanol prior to homogenization. After the 10 mg/kg DHEA suspension was homogenized the probe was rinsed 2× with 50 mL of absolute ethanol, then with 50 mL of 70% ethanol, and then dried with sterile gauze. For the 20 mg/kg DHEA suspension, 50.9 mg DHEA was suspended in 10.2 mL of Cremophor-saline vehicle.
19.4 mg of fluasterone was weighed out and transferred to a glass scintillation vial. 7.8 mL of Cremophor-saline vehicle was added to the vial and the contents of the vial were homogenized with a Tissumizer as described previously. Prior to preparing the 20 mg/kg fluasterone, the probe was rinsed 2× with 50 mL of absolute ethanol and 1× with 50 mL of 70% ethanol. For the 20 mg/kg suspension, 47.0 mg was weighed out and transferred to a glass scintillation vial. 9.4 mL of Cremophor-saline vehicle was added to the vial and the contents of the vial were homogenized with a Tissumizer as described above.
Female CD-1 mice, 43-45 days old, were obtained from Charles River Laboratories. The mice were housed 5 per cage in plastic shoebox cages with ad libitum access to Purina chow 5015 and water in the Pharmacy CAF with 12 hr of alternating light and darkness.
Prior to the experiment the mice were weighed, separated into 6 groups containing 5 mice each and treated as follows:
Mice were treated s.c. with 0.1 mL of 5% Cremophor-95% saline for three days. On the third day, the mice were also treated s.c. with 1.6 mg of dexamethasone dissolved in 0.06 mL of absolute. ethanol.
Mice were treated s.c. with 0.25 mg of DHEA suspended in 0.1 mL of 5% Cremophor-95% saline for three days. On the third day, the mice were also treated s.c. with 1.6 mg of dexamethasone dissolved in 0.06 mL of absolute ethanol.
Mice were treated s.c. with 0.5 mg of DHEA suspended in 0.1 mL of 5% Cremophor-95% saline for three days. On the third day, the mice were also treated s.c. with 1.6 mg of dexamethasone dissolved in 0.06 mL of absolute ethanol.
Mice were treated s.c. with 0.25 mg of fluasterone suspended in 0.1 mL of 5% Cremophor-95% saline for three days. On the third day, the mice were also treated s.c. with 1.6 mg of dexamethasone dissolved in 0.06 mL of absolute ethanol.
Mice were treated s.c. with 0.5 mg of fluasterone suspended in 0.1 mL of 5% Cremophor-95% saline for three days. On the third day, the mice were also treated s.c. with 1.6 mg of dexamethasone dissolved in 0.06 mL of absolute ethanol.
All s.c. injections were made in the nape. All mice were lightly anesthetized while the s.c. injections were done.
Twenty-four hours after dexamethasone treatment, the mice were euthanized by an overdose of isoflurane. The spleen and thymus were removed, cleaned of any adventitia, rinsed, blotted on filter paper, and weighed. […]

[2] = Fate of orally administered 14C-fluasterone
[3] = molecular target: glucose 6-phosphate dehydrogenase (G6PDH) (Homo sapiens, UniProt P11413); conditions: Schwartz et al., Cancer Res. 48:4817-4822, 1988; cited from earlier work
glucose 6-phosphate dehydrogenase (G6PDH), sequence (P11413 whole entry): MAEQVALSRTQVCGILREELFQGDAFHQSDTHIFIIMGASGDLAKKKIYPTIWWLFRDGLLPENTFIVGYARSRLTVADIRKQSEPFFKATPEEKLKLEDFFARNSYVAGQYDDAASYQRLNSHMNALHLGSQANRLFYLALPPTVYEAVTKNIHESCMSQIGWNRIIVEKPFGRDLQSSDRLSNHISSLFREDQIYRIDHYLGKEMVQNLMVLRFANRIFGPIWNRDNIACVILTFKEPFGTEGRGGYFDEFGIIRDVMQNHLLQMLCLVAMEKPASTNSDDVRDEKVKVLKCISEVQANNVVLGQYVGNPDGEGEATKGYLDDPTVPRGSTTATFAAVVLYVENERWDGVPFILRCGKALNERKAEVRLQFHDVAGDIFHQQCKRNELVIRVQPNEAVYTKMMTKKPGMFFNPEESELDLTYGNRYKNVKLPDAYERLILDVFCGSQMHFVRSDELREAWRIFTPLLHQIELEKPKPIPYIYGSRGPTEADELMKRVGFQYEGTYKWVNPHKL

[4] = Table 15, steroid 10 mg/kg in Cremophor-saline + dexamethasone
[5] = Table 15, steroid 20 mg/kg in Cremophor-saline + dexamethasone
[6] = Table 16, steroid 5 mg/kg + dexamethasone
[7] = Table 16, steroid 10 mg/kg + dexamethasone
[8] = Table 16, steroid 20 mg/kg + dexamethasone
[9] = Table 16, steroid 60 mg/kg + dexamethasone
[10] = Table 16, steroid 40 mg/kg + dexamethasone

C[C@H]1CC[C@@]2(C)C(=CC[C@@H]3[C@@H]2CC[C@]2(C)C(=O)CC[C@@H]32)C1 [3β-methyl-5-androsten-17-one]
Spleen wt [1, 4]: 70.7 + 4.5
Spleen wt/BW [1, 4]: 2.9 + 0.2
Thymus wt [1, 4]: 61.9 + 3.9
Thymus wt/BW [1, 4]: 2.6 + 0.2
Spleen wt [1, 5]: 67.0 ± 11.3
Spleen wt/BW [1, 5]: 2.6 ± 0.2
Thymus wt [1, 5]: 62.2 ± 4.1
Thymus wt/BW [1, 5]: 2.4 ± 0.2
Approximate Potency Compared to Fluasterone in Protecting Against DEX-induced Thymic and Splenic Involution ([1]; mice): slightly less active
rank of activity among steroids tested against DEX-induced thymic and splenic involution ([1]; mice): almost as great potency

C[C@H]1CC[C@@]2(C)C(=CC[C@@H]3[C@@H]2CC[C@]2(C)C(=O)[C@H](Cl)C[C@@H]32)C1 [3β-methyl-16α-chloro-5-androsten-17-one]
Spleen wt [1, 4]: 42.3 ± 5.6
Spleen wt/BW [1, 4]: 1.6 ± 0.2
Thymus wt [1, 4]: 31.7 ± 4.1
Thymus wt/BW [1, 4]: 1.2 ± 0.1
Spleen wt [1, 5]: 38.6 ± 6.3
Spleen wt/BW [1, 5]: 1.2 ± 0.3
Thymus wt [1, 5]: 28.6 ± 3.2
Thymus wt/BW [1, 5]: 1.1 ± 0.1
Approximate Potency Compared to Fluasterone in Protecting Against DEX-induced Thymic and Splenic Involution ([1]; mice): about ⅙ or considerably

C[C@H]1CC[C@@]2(C)C(=CC[C@@H]3[C@@H]2CC[C@]2(C)C(=O)[C@H](F)C[C@@H]32)C1 [3β-methyl-16α-fluoro-5-androsten-17-one]
Spleen wt [1, 4]: 50.9 ± 7.5
Spleen wt/BW [1, 4]: 2.0 ± 0.3
Thymus wt [1, 4]: 43.8 ± 3.0
Thymus wt/BW [1, 4]: 1.7 ± 0.1
Spleen wt [1, 5]: 55.0 ± 4.6
Spleen wt/BW [1, 5]: 2.2 ± 0.1
Thymus wt [1, 5]: 55.8 ± 5.4
Thymus wt/BW [1, 5]: 2.2 ± 0.2
Approximate Potency Compared to Fluasterone in Protecting Against DEX-induced Thymic and Splenic Involution ([1]; mice): <½

C[C@H]1CC[C@@]2(C)C(=CC[C@@H]3[C@@H]2CC[C@]2(C)C(=O)[C@H](C)C[C@@H]32)C1 [3β-methyl-16α-methyl-5-androsten-17-one]
recovery from anesthesia (two mice of the group) ([1]; 20 mg/kg group, Example 9): never recovered from anesthesia
Spleen wt [1, 4]: 44.9 + 9.2
Spleen wt/BW [1, 4]: 1.7 + 0.3
Thymus wt [1, 4]: 42.6 + 4.7
Thymus wt/BW [1, 4]: 1.7 + 0.2
Spleen wt [1, 5]: 44.4 ± 8.7
Spleen wt/BW [1, 5]: 1.8 ± 0.3
Thymus wt [1, 5]: 37.7 ± 4.0
Thymus wt/BW [1, 5]: 1.5 ± 0.2
Approximate Potency Compared to Fluasterone in Protecting Against DEX-induced Thymic and Splenic Involution ([1]; mice): about ⅙

C[C@]12CCCCC1=C[C@@H](O)[C@@H]1[C@@H]2CC[C@]2(C)C(=O)[C@H](F)C[C@@H]12 [7α-hydroxyfluasterone, 7α-hydroxy-16α-fluoro-5-androsten-17-one]
Body Weight [1, 6]: 24.5 ± 1.0
Spleen wt [1, 6]: 46.3 ± 11.1
Spleen wt/BW [1, 6]: 1.8 ± 0.5
Thymus wt [1, 6]: 43.8 ± 6.9
Thymus wt/BW [1, 6]: 1.8 ± 0.3
Body Weight [1, 7]: 24.0 ± 1.3
Spleen wt [1, 7]: 50.9 ± 12.5
Spleen wt/BW [1, 7]: 2.1 ± 0.5
Thymus wt [1, 7]: 54.8 ± 12.1
Thymus wt/BW [1, 7]: 2.3 ± 0.4
Approximate Potency Compared to Fluasterone in Protecting Against DEX-induced Thymic and Splenic Involution ([1]; mice): about ½

C[C@]12CC[C@H]3[C@@H](CC=C4CCCC[C@@]43C)[C@@H]1C[C@@H](F)[C@@H]2O [16α-fluoro-5-androsten-17β-ol]
Body Weight [1, 8]: 25.1 ± 1.0
Spleen wt [1, 8]: 52.3 ± 10.8
Spleen wt/BW [1, 8]: 2.1 ± 0.4
Thymus wt [1, 8]: 42.3 ± 4.6
Thymus wt/BW [1, 8]: 1.7 ± 0.2
Body Weight [1, 9]: 25.7 ± 1.5
Spleen wt [1, 9]: 45.9 ± 5.1
Spleen wt/BW [1, 9]: 1.8 ± 0.2
Thymus wt [1, 9]: 45.1 ± 5.1
Thymus wt/BW [1, 9]: 1.8 ± 0.2
Approximate Potency Compared to Fluasterone in Protecting Against DEX-induced Thymic and Splenic Involution ([1]; mice): < 1/12

C[C@]12CCCCC1=CC[C@@H]1[C@@H]2CC[C@]2(C)C(=O)[C@H](O)C[C@@H]12 [16α-hydroxy-5-androsten-17-one]
Body Weight [1, 8]: 25.4 ± 1.5
Spleen wt [1, 8]: 46.6 ± 7.5
Spleen wt/BW [1, 8]: 1.8 ± 0.2
Thymus wt [1, 8]: 41.2 ± 1.3
Thymus wt/BW [1, 8]: 1.6 ± 0.1
Body Weight [1, 9]: 23.8 ± 0.8
Spleen wt [1, 9]: 53.6 ± 6.3
Spleen wt/BW [1, 9]: 2.2 ± 0.3
Thymus wt [1, 9]: 45.9 ± 3.1
Thymus wt/BW [1, 9]: 1.9 ± 0.2
Approximate Potency Compared to Fluasterone in Protecting Against DEX-induced Thymic and Splenic Involution ([1]; mice): about 1/12

C[C@@H]1C[C@H]2[C@@H]3CC=C4CCCC[C@]4(C)[C@H]3CC[C@]2(C)C1=O [16α-methyl-5-androsten-17-one]
Body Weight [1, 4]: 25.3 ± 0.8
Spleen wt [1, 4]: 37.8 ± 6.1
Spleen wt/BW [1, 4]: 1.5 ± 0.3
Thymus wt [1, 4]: 28.0 ± 1.7
Thymus wt/BW [1, 4]: 1.1 ± 0.1
Approximate Potency Compared to Fluasterone in Protecting Against DEX-induced Thymic and Splenic Involution ([1]; mice): about ⅙ or less

C[C@@H]1C[C@H]2[C@@H]3CCC4=CC(=O)C=C[C@]4(C)[C@@]3(F)[C@@H](O)C[C@]2(C)[C@@]1(O)C(=O)CO [DEXAMETHASONE, dexamethasone, reference compound]
Thymus wt ([1]; Table 12, dexamethasone 1.6 mg s.c. once after vehicle s.c. 3 days, 24 h after dexamethasone): 33.2 ± 1.3

C[C@]12CCCCC1=CC[C@@H]1[C@@H]2CC[C@]2(C)C(=O)[C@H](F)C[C@@H]12 [^14C-Fluasterone]
metabolism after oral administration [2]: extensive first-pass hepatic and/or gastrointestinal metabolism

C[C@]12CCCC[C@@H]1CC[C@@H]1[C@@H]2CC[C@]2(C)C(=O)[C@H](F)C[C@@H]12 [compound 8356, 16α-fluoro-5α-androstan-17-one]
Body Weight [1, 8]: 25.2 ± 2.9
Spleen wt [1, 8]: 54.0 ± 4.5
Spleen wt/BW [1, 8]: 2.0 ± 0.3
Thymus wt [1, 8]: 40.8 ± 5.8
Thymus wt/BW [1, 8]: 1.6 ± 0.1
Body Weight [1, 10]: 25.2 ± 1.4
Spleen wt [1, 10]: 51.2 ± 3.0
Spleen wt/BW [1, 10]: 2.0 ± 0.2
Thymus wt [1, 10]: 54.4 ± 4.5
Thymus wt/BW [1, 10]: 2.2 ± 0.2
Approximate Potency Compared to Fluasterone in Protecting Against DEX-induced Thymic and Splenic Involution ([1]; mice): about ⅛
G6PDH inhibition compared with fluasterone [3]: more potent G6PDH inhibitor than fluasterone
